The text below walks through data of patent publication US20030022821A1, “Bioactive peptides” (priority 1998, published 2003).

What all share (type): cell-based
In data set [1] the test system is Escherichia coli ATCC 25922. How it is done: (§1) The bacterial strains used were: Escherichia coli ATCC 25922 and Staphylococcus aureus ATCC 25923. All strains were stored at −70° C. The bacteria were grown in 2% Bacto Peptone water (Difco 1807-17-4). All tests were performed with bacteria in mid-logarithmic growth phase. Determination of the minimum inhibitory concentration (MIC) of the peptides for bacterial strains were performed in 1% Bacto Peptone water. A standard microdilution technique with an inoculum of 2×10^6 CFU/ml was used. All assays were performed in triplets. Since the peptides are positively charged and therefore could adhere to the plastic wells, we controlled the actual concentration of the peptides in the solution by HPLC. There was no difference between the concentration of the peptides before or after adding the solution to the plastic wells.

Data set [2] deals with Staphylococcus aureus ATCC 25923. How it is done: as §1
The subject of a further data set is human red blood cells. Description: Hemolytic assay. The protocol:
The hemolytic activities of the peptides were determined using fresh human red blood cells. 8 ml blood was taken from a healthy person. 4 ml blood was transferred to a polycarbonate tube containing heparin to a final concentration of 10 U/ml, and the remaining 4 ml blood was transferred to a glass tube containing EDTA with final concentration of 15% EDTA. The erythrocytes were isolated from heparin-treated blood by centrifugation in 1500 rpm for 10 min and washed three times with phosphate-buffered saline (PBS) to remove plasma and buffy coat. The cell pellet was resuspended in PBS to make the final volume of 4 ml. The peptide was diluted to a concentration of 2 mg/ml and 0.1 mg/ml. The peptide was further diluted to the concentrations as stated in Table 15. For each tube PBS was added first, then RBCs and peptide solutions. The hematocrit in the blood treated with EDTA was determined after 30 min with Sysmex K-1000, and the resuspended RBCs were diluted into 10% hematocrit. RBCs in PBS (1%) with and without peptides (Table 15) were incubated in a shaker at […] for 1 hour and then centrifuged at 4000 rpm for 5 min. The supernatant were carefully transferred to new polycarbonate tubes and the absorbance of the supernatant was measured at 540 nm. Baseline hemolysis was hemoglobin released in the presence of PBS, and 100% hemolysis was hemoglobin released in the presence of 0.1% Triton X-100.

In brackets after ≈: the same amount, converted by molar mass. Like-named read-outs stand apart in the source and are kept apart here. Ends that are not written are not given here. Peptide text beside a SMILES is read from it. * marks the point of attachment. Acm = CC(=O)NC*

Usually EC50 stands for the concentration that produces a half-maximal response.

For the compound `CSCC[C@@H](NC(=O)[C@@H](CCCNC(=N)N)NC(=O)[C@@H](Cc1c[nH]c2ccccc12)NC(=O)[C@@H](CCC(N)=O)NC(=O)[C@@H](Cc1c[nH]c2ccccc12)NC(=O)[C@@H](CCCNC(=N)N)NC(=O)[C@@H](CCCNC(=N)N)NC(=O)[C@@H](CSCNC(C)=O)NC(=O)[C@@H](CCCCN)NC(=O)[C@H](N)Cc1ccccc1)C(=O)N[C@H](CCCCN)C(=O)N[C@H](CCCCN)C(=O)N[C@H](CC(C)C)C(=O)NCC(=O)N[C@H](C)C(=O)O` [Enantio LFB 17-31], the MIC E. coli in data set [1] (Table 3) was 7.5 µg/mL (≈ 3.63 µM). Besides, the MIC S. aureus in data set [2] (Table 3, unit assumed) amounted to 60 µg/mL (≈ 29 µM). Also, the “% Hemolysis 10 μg/ml” value in the data set on human red blood cells (red cells of human, 10) is on record as 3.05%.

On to `CSCC[C@H](NC(=O)[C@H](CCCNC(=N)N)NC(=O)[C@H](Cc1c[nH]c2ccccc12)NC(=O)[C@H](CCC(N)=O)NC(=O)[C@H](Cc1c[nH]c2ccccc12)NC(=O)[C@H](CCCNC(=N)N)NC(=O)[C@H](CC(C)C)NC(=O)[C@H](CSCNC(C)=O)NC(=O)[C@H](CCCCN)NC(=O)[C@H](C)N)C(=O)N[C@@H](CCCNC(=N)N)C(=O)N[C@@H](CCCCN)C(=O)N[C@@H](Cc1ccc(O)cc1)C(=O)NCC(=O)NCC(=O)O` [LFM A1 R9 W8 Y13] (H-AKC(Acm)LRWQWRMRKYGG-OH; N-terminus and C-terminus assumed), for which, in data set [1] (ATCC 25922), the “MIC E. coli” value was 50 µg/mL (≈ 24.9 µM). Moreover, the “MIC S. aureus” value in data set [2] (ATCC 25923) was 200 µg/mL (≈ 99.5 µM).

Regarding `CSCC[C@H](NC(=O)[C@H](CCC(=O)O)NC(=O)[C@H](Cc1c[nH]c2ccccc12)NC(=O)[C@H](CCC(N)=O)NC(=O)[C@H](Cc1c[nH]c2ccccc12)NC(=O)[C@H](CCCNC(=N)N)NC(=O)[C@H](CC(C)C)NC(=O)[C@H](CSCNC(C)=O)NC(=O)[C@H](CCCCN)NC(=O)[C@H](C)N)C(=O)N[C@@H](CCCNC(=N)N)C(=O)N[C@@H](CCCCN)C(=O)N[C@@H](Cc1ccc(O)cc1)C(=O)NCC(=O)NCC(=O)O` [LFM A1 W8 Y13] (H-AKC(Acm)LRWQWEMRKYGG-OH; N-terminus and C-terminus assumed), the “MIC E. coli” value in data set [1] (ATCC 25922) worked out at 500 µg/mL (≈ 252 µM). The “MIC S. aureus” value in data set [2] (ATCC 25923) is above 1000 µg/mL.

Consider `CSCC[C@H](NC(=O)[C@H](C)NC(=O)[C@H](Cc1c[nH]c2ccccc12)NC(=O)[C@H](CCC(N)=O)NC(=O)[C@H](Cc1c[nH]c2ccccc12)NC(=O)[C@H](CCCNC(=N)N)NC(=O)[C@H](CC(C)C)NC(=O)[C@H](CSCNC(C)=O)NC(=O)[C@H](CCCCN)NC(=O)[C@H](C)N)C(=O)N[C@@H](CCCNC(=N)N)C(=O)N[C@@H](CCCCN)C(=O)N[C@@H](Cc1ccc(O)cc1)C(=O)NCC(=O)NCC(=O)O` [LFM A1, 9 W8 Y13] (H-AKC(Acm)LRWQWAMRKYGG-OH; N-terminus and C-terminus assumed), for which the “MIC E. coli” value in data set [1] (ATCC 25922) turned out to be 150 µg/mL (≈ 77.9 µM). Also, the “MIC S. aureus” value in data set [2] (ATCC 25923) was above 1000 µg/mL.

`CSCC[C@H](NC(=O)[C@H](C)NC(=O)[C@H](Cc1c[nH]c2ccccc12)NC(=O)[C@H](CCC(N)=O)NC(=O)[C@H](Cc1c[nH]c2ccccc12)NC(=O)[C@H](CCCNC(=N)N)NC(=O)[C@H](CC(C)C)NC(=O)[C@H](CSCNC(C)=O)NC(=O)[C@H](CCCCN)NC(=O)[C@@H](N)CCC(=O)O)C(=O)N[C@@H](CCCNC(=N)N)C(=O)N[C@@H](CCCCN)C(=O)N[C@@H](Cc1ccc(O)cc1)C(=O)NCC(=O)NCC(=O)O` [LFM A9 W8 Y13] (H-EKC(Acm)LRWQWAMRKYGG-OH; N-terminus and C-terminus assumed): in data set [1] (ATCC 25922), the “MIC E. coli” value is above 1000 µg/mL. Further, the “MIC S. aureus” value in data set [2] (ATCC 25923) was above 1000 µg/mL.

Turning to `CSCC[C@H](NC(=O)[C@H](CCC(=O)O)NC(=O)[C@H](Cc1c[nH]c2ccccc12)NC(=O)[C@H](CCC(N)=O)NC(=O)[C@H](Cc1c[nH]c2ccccc12)NC(=O)[C@H](CCCNC(=N)N)NC(=O)[C@H](CC(C)C)NC(=O)[C@H](CSCNC(C)=O)NC(=O)[C@H](CCCCN)NC(=O)[C@@H](N)CCCNC(=N)N)C(=O)N[C@@H](CCCNC(=N)N)C(=O)N[C@@H](CCCCN)C(=O)N[C@@H](Cc1ccc(O)cc1)C(=O)NCC(=O)NCC(=O)O` [LFM R1 W8 Y13] (H-RKC(Acm)LRWQWEMRKYGG-OH; N-terminus and C-terminus assumed), the “MIC E. coli” value in data set [1] (ATCC 25922) was 50 µg/mL (≈ 24.2 µM). Moreover, the “MIC S. aureus” value in data set [2] (ATCC 25923) was found to be 50 µg/mL (≈ 24.2 µM).

In the case of `CSCC[C@H](NC(=O)[C@H](CCCNC(=N)N)NC(=O)[C@H](Cc1c[nH]c2ccccc12)NC(=O)[C@H](CCC(N)=O)NC(=O)[C@H](Cc1c[nH]c2ccccc12)NC(=O)[C@H](CCCNC(=N)N)NC(=O)[C@H](CC(C)C)NC(=O)[C@H](CSCNC(C)=O)NC(=O)[C@H](CCCCN)NC(=O)[C@@H](N)CCCNC(=N)N)C(=O)N[C@@H](CCCNC(=N)N)C(=O)N[C@@H](CCCCN)C(=O)N[C@@H](Cc1ccc(O)cc1)C(=O)NCC(=O)NCC(=O)O` [LFM R1, 9 W8 Y13] (H-RKC(Acm)LRWQWRMRKYGG-OH; N-terminus and C-terminus assumed), in data set [1] (ATCC 25922), the “MIC E. coli” value stood at 25 µg/mL (≈ 11.9 µM). In addition, in data set [2] (ATCC 25923), the “MIC S. aureus” value was found to be 50 µg/mL (≈ 23.9 µM).

In the case of `CSCC[C@H](NC(=O)[C@H](CCCNC(=N)N)NC(=O)[C@H](Cc1c[nH]c2ccccc12)NC(=O)[C@H](CCC(N)=O)NC(=O)[C@H](Cc1c[nH]c2ccccc12)NC(=O)[C@H](CCCNC(=N)N)NC(=O)[C@H](CC(C)C)NC(=O)[C@H](CSCNC(C)=O)NC(=O)[C@H](CCCCN)NC(=O)[C@@H](N)CCC(=O)O)C(=O)N[C@@H](CCCNC(=N)N)C(=O)N[C@@H](CCCCN)C(=O)N[C@@H](Cc1ccc(O)cc1)C(=O)NCC(=O)NCC(=O)O` [LFM R9 W8 Y13] (H-EKC(Acm)LRWQWRMRKYGG-OH; N-terminus and C-terminus assumed), the “MIC E. coli” value in data set [1] (ATCC 25922) was determined as 150 µg/mL (≈ 72.5 µM). Besides, in data set [2] (ATCC 25923), the “MIC S. aureus” value amounted to 1000 µg/mL (≈ 483 µM).

`CSCC[C@H](NC(=O)[C@H](CCC(=O)O)NC(=O)[C@H](Cc1c[nH]c2ccccc12)NC(=O)[C@H](CCC(N)=O)NC(=O)[C@H](Cc1c[nH]c2ccccc12)NC(=O)[C@H](CCCNC(=N)N)NC(=O)[C@H](CC(C)C)NC(=O)[C@H](CSCNC(C)=O)NC(=O)[C@H](CCCCN)NC(=O)[C@@H](N)CCC(=O)O)C(=O)N[C@@H](CCCNC(=N)N)C(=O)N[C@@H](CCCCN)C(=O)N[C@@H](Cc1ccc(O)cc1)C(=O)NCC(=O)NCC(=O)O` [LFM W8 Y13] (H-EKC(Acm)LRWQWEMRKYGG-OH; N-terminus and C-terminus assumed): in data set [1] (ATCC 25922), the “MIC E. coli” value was above 1000 µg/mL. Further, the “MIC S. aureus” value in data set [2] (ATCC 25923) was above 1000 µg/mL.

With `CC[C@H](C)[C@H](NC(=O)[C@H](CCCCN)NC(=O)[C@H](Cc1c[nH]c2ccccc12)NC(=O)[C@H](CCC(N)=O)NC(=O)[C@H](Cc1c[nH]c2ccccc12)NC(=O)[C@H](CCC(N)=O)NC(=O)[C@H](CCCNC(=N)N)NC(=O)[C@H](CSCNC(C)=O)NC(=O)[C@H](CCCCN)NC(=O)[C@@H](N)CO)C(=O)N[C@@H](CCCNC(=N)N)C(=O)N[C@@H](CCCNC(=N)N)C(=O)N[C@H](C(=O)N[C@@H](CC(N)=O)C(=O)N1CCC[C@H]1C(=O)O)[C@@H](C)O` [LFPW8] (H-SKC(Acm)RQWQWKIRRTNP-OH; N-terminus assumed), the MIC E. coli in data set [1] (Table 4) worked out at 500 µg/mL (≈ 243 µM). In addition, the MIC S. aureus in data set [2] (Table 4, unit assumed) was above 1000 µg/mL.

On to H-FKARRWAWRMKKLGA-OH [LFB A3, 7], for which, in the data set with human red blood cells, the “EC 50” value was above 1000 µg/mL and the EC50 is above 525 µM.

With “LFH Pmc: human lactoferricin with Pmc attached to the only available tryptophan”, the MIC E. coli in data set [1] (Table 5) was found to be 25 µg/mL. Besides, the MIC S. aureus in data set [2] (Table 5, unit assumed) worked out at 50 µg/mL.

RRWQWRMKKLGA-OH [LFB 20-31]: the “MIC E. coli ATCC 25922” value was determined as 100 µg/mL in data set [1] (ATCC 25922) and 62 µM in data set [1] (Table 1, value in brackets). Moreover, in data set [1] (Table 11), the “MIC E. coli” value worked out at 100 µg/mL. Moreover, the “MIC S. aureus ATCC 25923” value in data set [2] (ATCC 25923) turned out to be 200 µg/mL; in data set [2] (Table 1, value in brackets), 124 µM. Further, the “MIC S. aureus” value in data set [2] (Table 11) was found to be 200 µg/mL.

Turning to “RRWYRWWR-NH2 [LFM 17-24 R1,2, 8 W3, 7Y4NH2]”, in data set [1] (ATCC 25922), the “MIC E. coli” value came out at 5 µg/mL. Also, the “MIC S. aureus” value in data set [2] (ATCC 25923) is 2.5 µg/mL.

“SKCRQWQSKIRRTNP [Native LFP, porcine region corresponding to LFB 17-31]” yielded an MIC E. coli in data set [1] (Table 4) above 1000 µg/mL. This compound gave an MIC S. aureus in data set [2] (Table 4, unit assumed) above 1000 µg/mL.

Compound TKCFQWQRNMRKVRG [Native LFH] came in with an MIC E. coli in data set [1] (Table 4) above 1000 µg/mL. The same compound came in with an MIC S. aureus in data set [2] (Table 4, unit assumed) above 1000 µg/mL.

As to “YRMWRWAWRWR-NH2 [LFB 17-27 A7 M3 R2, 11 W4, 10 Y1 NH2]”, the EC50 in the data set with human red blood cells was found to be 291 ± 91 µM. Also, the “EC 50” value in the data set with human red blood cells (Table 13, toxicity (hemolysis)) worked out at 510 ± 160 µg/mL.

With “YRWARWWRR-NH2 [LFM 17-25 A4R2,8, 9W3, 7Y1NH2]”, the “MIC E. coli” value in data set [1] (ATCC 25922) was determined as 10 µg/mL. Moreover, the “MIC S. aureus” value in data set [2] (ATCC 25923) worked out at 5 µg/mL.
